Measurements from EP4792822A1, “USE OF PEPTIDE AMIDE COMPOUND IN PREPARATION OF DRUG FOR […] AND VOMITING” (Haisco Pharmaceutical Group Co., Ltd., priority 2023, dated 2025).

System: subjects undergoing elective laparoscopic abdominal surgery under general anaesthesia
Assay: Example 1: phase III, placebo-controlled clinical study of compound 1 injection for postoperative analgesia (morphine rescue; nausea and vomiting recorded)
Type: in vivo, patients
Excerpt: This study was a multicentre, randomised, double-blind, placebo-controlled phase III clinical study conducted in China to evaluate the efficacy and safety of compound 1 injection for postoperative analgesia in subjects undergoing elective laparoscopic abdominal surgery under general anaesthesia. […] subjects undergoing elective laparoscopic abdominal surgery under general anaesthesia were enrolled and randomised to two groups: the compound 1 group (136 subjects) and the placebo group (135 subjects). All subjects received an intravenous injection of compound 1 injection or placebo injection within 5 min after the completion of the first NRS score assessment, and the end time of the first postoperative administration was recorded as 0 min. At 8 h and 16 h after the end of the first administration, within a time window of ±15 min, a single corresponding dose of the compound 1 injection or placebo injection was administered intravenously to the subjects.
Resting NRS score assessments were performed in subjects within 5 min before the first postoperative administration, and at 15 min ± 5 min, 30 min ± 5 min, 1 h ± 5 min, 2 h ± 15 min, 4 h ± 15 min, 8 h (within 30 min before the second postoperative administration), 12 h ± 30 min, 16 h (within 30 min before the last postoperative administration), 20 h ± 30 min, and 24 h ± 1 h after the first postoperative administration. The NRS score for resting pain refers to the NRS score assessed when the subject is at rest (e.g., sitting or lying still). If the subject was unconscious at a scheduled NRS assessment time point, the score was recorded as follows: if the previous NRS score was ≥ 2, the current NRS score was recorded as 2; if the previous NRS score was < 2, the current NRS score was recorded as the previous score. Meanwhile, it was documented that the subject was unconscious at the time of assessment.
A morphine injection was administered via intravenous injection for rescue treatment if the resting pain NRS score was ≥ 4 at any pain assessment time point after the first postoperative administration, or if the subject complained of pain at any time point and the resting pain NRS score was ≥ 4. It was recommended that the time from the subject's NRS assessment to actual administration of morphine injection be ≤ 30 min; an initial intravenous dose of 3 mg be administered, followed by additional doses as needed. It was also recommended that the interval between two rescue treatments be ≥ 2 h and that the interval between rescue medication and study drug administration be ≥ 1 h.
Prophylactic antiemetic treatment was prohibited during the study. After the first postoperative administration, the investigator administered antiemetic agents based on the occurrence of nausea and vomiting in the subject, and the dosage of the antiemetic agents was recorded. Tropisetron was the preferred antiemetic agent (an initial intravenous dose of 2.5 mg, followed by additional doses as needed, not to exceed 10 mg within 24 h). If tropisetron was insufficiently effective, other agents were used by the investigator in accordance with routine clinical practice.
Abdominal surgery, female sex, non-smoking status, and postoperative opioid use are known as risk factors leading to postoperation nausea and vomiting (PONV). Two studies of compound 1 injection for postoperative analgesia after abdominal surgery were completed. Morphine (Example 1) and flurbiprofen axetil (Example 2) were used as rescue analgesic agents in the two studies, respectively, and prophylactic antiemetic treatment was prohibited during the studies. The study results were summarised as follows.

[1] = Example 1, No morphine use (no rescue analgesia), N = 91
[2] = Example 1, No morphine use, listed as compound 1
[3] = Example 1, Overall, safety analysis set, N = 136
[4] = Example 1, Overall, safety analysis set, N = 136, listed as compound 1
[5] = within 0-12 h and 0-24 h after the first postoperative administration, compared with placebo
[6] = within 0-24 h after the first administration, compared with placebo

SMILES: CC(=O)N1CC2(CCN(C(=O)[C@@H](CCCCN)NC(=O)[C@@H](CC(C)C)NC(=O)[C@@H](Cc3ccccc3)NC(=O)[C@H](N)Cc3ccccc3)CC2)C1 [Compound 1, (2R)-N-[(1R)-1-(2-acetyl-2,7-diazaspiro[3.5]nonane-7-carbonyl)-5-amino-pentyl]-2-[[(2R)-2-[[(2R)-2-amino-3-phenyl-propionyl]amino]-3-phenylpropionyl]amino]-4-methyl-pentanamide]
- overall safety and tolerability (Example 1): good overall safety and tolerability
- Change in incidence of nausea relative to placebo (Example 1, No morphine use): 25.7% reduction
- Change in incidence of vomiting relative to placebo (Example 1, No morphine use): 20.1% reduction
- Nausea (incidence) [1]: 16.5%
- Vomiting (incidence) [1]: 18.7%
- Change in incidence of nausea relative to placebo [2]: 25.7 % reduction
- Change in incidence of vomiting relative to placebo [2]: 20.1 % reduction
- Change in incidence of nausea relative to placebo (Example 1, Overall): 35.8% reduction
- Change in incidence of vomiting relative to placebo (Example 1, Overall): 52.8% reduction
- Nausea (incidence) [3]: 17.6%
- Vomiting (incidence) [3]: 15.4%
- Nausea (incidence) [4]: 17.6%
- Vomiting (incidence) [4]: 15.4%
- PID at each time point (compared with placebo): significantly lower than those in the placebo group
- SPID0-12 h after the first postoperative administration (compared with placebo): significantly lower than those in the placebo group
- SPID0-24 h after the first postoperative administration (compared with placebo): superior to that in the placebo group
- duration of analgesia (compared with placebo): significantly longer than those in the placebo group
- incidences of adverse reactions (compared with placebo): comparable to those in the placebo group
- incidences of adverse reactions (including nausea and vomiting) (compared with placebo): significantly lower than those in the placebo group
- incidences of the main TEAEs (including nausea and vomiting) (compared with placebo): significantly lower than those in the placebo group
- subject and investigator satisfaction scores for postoperative analgesia (compared with placebo): significantly higher than those in the placebo group
- time to the first use of rescue analgesic agents (compared with placebo): significantly longer than those in the placebo group
- effect on PONV in patients after abdominal surgery (summary of both Phase III studies (Example 1)): preventive and/or alleviating effect on PONV
- mean cumulative dosage of rescue analgesic agents [5]: significantly lower than those in the placebo group
- proportion of subjects with NRS scores ≤ 3 [5]: significantly higher than those in the placebo group
- mean cumulative dosage of antiemetic agents [6]: significantly lower than those in the placebo group
- proportion of subjects using antiemetic agents [6]: significantly lower than those in the placebo group
- proportion of subjects using rescue analgesic agents (within 0-24 h after the first postoperative administration, compared with placebo): significantly lower than those in the placebo group
